# Reference: US8729053B2, “Nuclear factor kappa B pathway inhibitor composition and use of same” (The United States of America, as represented by the …, priority 2008, dated 2014)
# Where a name gives a salt, the structure may show the parent alone.
# Experiments:
# HEK293T cells = assay: XTT assay in HEK293T cells; type: cell-based
# Description: To evaluate whether the compound I biological activity can imitate TAM67 specificity, three different transcriptional promoter reporters were used, AP-1, NFκB, and SRE (Serum response element) in luciferase reporter assays (FIG. 1A: The transfected cells were pre-treated with varied concentrations of compound I or DMSO for 1 hour before 18 hours stimulation by TPA (10 ng/ml) or DMSO as vehicle. An asterisk (*) indicates a separate experiment with NFκB dependent luciferase only. Assays were performed with two independent experiments each in quadruplicate.). All three activities were induced by TPA but only induction of AP-I and NFκB were inhibited by TAM67. The SRE reporter was used as a specificity control and indicator of cell proliferation. TPA-induced SRE activity was not repressed by TAM67 when coexpressed with the SRE-Luc reporter in HEK293 cells. The same concentration (10 ng/ml, 16.2 nM) and incubation time (18 hrs) were used for TPA induction as previously used for the high throughput screen (HTS) (Ruocco et al., J. Biomol. Screen., 2007, 12, 133-9) along with 1 h pretreatment of compound I. The screening results had tested concentrations as high as 40 μM compound I with cell numbers showing 95.5+/−6.2% of DMSO control (ave+/− sd, n=3) by the XTT assay in HEK293T cells.
# IKKγ = assay: Immunoblot of phosphorylated IKKγ in HEK293 cells; type: cell-based; conditions: compound I pretreatment
# Description: (§1) To measure endogenous level of several proteins in response to TPA induction and compound I, HEK293 cells were lysed with RIPA buffer (10 mM Tris-HCl pH 7.5, 1 mM EDTA, 0.1% sodium dodecyl sulfate, 0.1% deoxycholate, and protease inhibitor). Whole cell extracts were subjected to immunoblot analysis with the following antibodies: p65 (F-6), p50 (E-10), p52 (C-5), RelB (C-19), IκBα (C-21), PCNA (F-2) were obtained from Santa Cruz Biotechnology (Santa Cruz, Calif.). IKKα, IKKβ, IKKγ, phospho-IκBα, phospho-IKKα/β, phospho-IKKγ, pohospho-Stat3 (Tyr 705 and Ser 727), phospho-p65 (Ser536 and Ser276), phospho-p44/42, phospho-JNKs were purchased from Cell Signaling (Danvers, Mass.), and α-tubulin from Sigma (St. Louis, Mo.). Nuclear and cytoplasmic extracts were prepared with HEK293 cells by NE-PER Nuclear and Cytoplasmic Extraction Reagents (Pierce Biotechnology, Rockford, Ill.) according to the manufacturer's protocol.
# To characterize the activity of compound I in targeting events upstream of NFκB, endogenous levels of kinases involved in NFκB activation were examined by immunoblot analysis. The well-established upstream regulators of NFκB activation are IKKα, IKKβ, and IκBα. […] Moreover, the phosphorylation of IκBα was inhibited even at 1.1 μM showing dose-dependent decrease by compound I pretreatment. […]
# COX-2 promoter = COX-2 promoter luciferase reporter assay in HEK293 cells; type: cell-based, human; conditions: TPA 10 ng/ml 18 hours
# Description: All expression plasmids were transiently transfected into HEK293 cells in a 96-well plate (0.1 μg/well) by using Effectene transfection reagent (Qiagen, Valencia, Calif.) according to the manufacturer's manual. HEK293 cells were maintained in Dulbecco's modified Eagle medium (Sigma, St. Louis, Mo.) supplemented with 10% fetal bovine serum (Atlanta Biologicals, Lawrenceville, Ga.) and incubated at 37° C. in a 5% CO2 incubator. After 24 hrs incubation, the medium was changed to DMEM with 0.2% FBS, and the transfectants were exposed to various concentrations of compound I and TPA (10 ng/ml). Cells were lysed with passive lysis buffer and the luciferase assay was performed using the Firefly-Luciferase reporter assay system (Promega, Madison, Wis.) and MLX Luminometer (Dynex Technology, Chantilly, Va.).
# Three different luciferase reporter genes, AP-1 reporter containing four times TRE consensus originated from GCN4 and SRE reporter purchased from Stratagene (La Jolla, Calif.) respectively are as described previously (Suzukawa et al., Environ. Health Perspect., 2002, 110, 865-70). […]
# Inhibition of NFκB transactivation would be expected to result in suppressed expression of genes whose transcription depends on NFκB. Quantitative RT-PCR was used to measure endogenous levels of IL-6 mRNA, transcribed from a gene whose transcription depends on NFκB but not AP-1. […]
# p65 = assay: Immunoblot of phosphorylated p65; type: cell-based
# Description: as §1
compound,measurement,setting,value
"Cc1cc(N)ccc1N=Nc1ccc(S(=O)(=O)CCOS(=O)(=O)O)cc1 [compound I, 2-(4-((4-amino-2-methylphenyl)diazenyl)phenylsulfonyl)ethyl hydrogen sulfate]","Cell numbers, % of DMSO control (ave+/− sd, n=3)","HEK293T cells; 40 μM, XTT assay, HEK293T",95.5+/−6.2%
same,Cytotoxic or cytostatic activity,HEK293T cells; HEK293 cells,neither cytotoxic nor cytostatic activity
same,Phosphorylation of IKKγ,IKKγ,did not change
same,COX-2 luciferase activity,COX-2 promoter,dose-dependent inhibition
same,Phosphorylation of p65 at Ser536,p65,inhibited
same,Phosphorylation of p65 at Ser536 and Ser276,p65; FIG. 7,decreased
